{"source": "patent US20240254536A1", "about": "“[…] ARRAY AND USES THEREOF” (DrugArray, Inc., priority 2021, published 2024)", "system": "E. coli", "assay": "pin array antibiotic susceptibility assay (zones of inhibition) on LB agar plates", "format": "cell-based", "details": "7×7 pin array", "method": "1. Cell Introduction: E. coli resuspension were plated onto LB agar plates and incubated at 37° C. until the cells reach desired condition.\n2. Pin array preparation: Two 7×7 pin arrays were loaded with ampicillin from 0.2 μg to 4 μg according to the configurations shown in FIGS. 5B and 6B, respectively.\n(§1) 3. Treatment: After the cells reach the desired condition, the pin arrays loaded with ampicillin according to the configurations shown in FIGS. 5B and 6B were coupled to LB agar plates with E. coli culture. The LB agar plates were incubated at 37° C.\n2. Pin array preparation: Two 7×7 pin arrays were loaded with ampicillin from 0.4 μg to 4 μg according to the configurations shown in FIGS. 7A and 7B, respectively.\nas §1, with “7A” for “5B”, “7B” for “6B”, “37° C., and stored overnight at 4°” for “37°”, “C. and in Styrofoam box with ice packs, respectively.” for “C.”\n2. Pin array preparation: A 7×7 pin array was loaded with ampicillin from 0.4 μg to 4 μg according to the configurations shown in FIG. 8A.\n3. Treatment: After the cells reach the desired condition, the pin array loaded with ampicillin according to the configurations shown in FIG. 8A was coupled to an LB agar plate with E. coli culture. The LB agar plate was incubated at 37° C., and images of the plates were taken at the same day (FIG. 8A), and after 5 weeks at 4° C. (FIG. 8B)."}
{"smiles": "CC1(C)S[C@@H]2[C@H](NC(=O)[C@H](N)c3ccccc3)C(=O)N2[C@H]1C(=O)O", "note": "[ampicillin]", "values": [{"measurement": "zones of inhibition", "setting": "ampicillin 0.2 μg to 4 μg, configuration of FIG. 5B, 37° C. (FIG. 5A)", "value": "well-defined, and a dose-dependent manner of the sizes of the zones"}, {"measurement": "zones of inhibition", "setting": "ampicillin 0.2 μg to 4 μg, configuration of FIG. 6B, 37° C. (FIG. 6A)", "value": "well-defined, dose-dependent zones of inhibition"}, {"measurement": "zones of inhibition", "setting": "ampicillin 0.4 μg to 4 μg, after 5 weeks of storage at 4° C. (FIG. 8B)", "value": "smaller zones of inhibition"}, {"measurement": "zones of inhibition", "setting": "ampicillin 0.4 μg to 4 μg, image taken the same day (FIG. 8A)", "value": "Well-defined, dose-dependent zones of inhibition"}, {"measurement": "zones of inhibition", "setting": "ampicillin 0.4 μg to 4 μg, stored overnight at 4° C. (FIG. 7A)", "value": "Well-defined, dose-dependent zones of inhibition"}, {"measurement": "zones of inhibition", "setting": "ampicillin 0.4 μg to 4 μg, stored overnight in Styrofoam box with ice packs (FIG. 7B)", "value": "Well-defined, dose-dependent zones of inhibition"}]}
